This is an account of results in patent US20210371461A1, “Novel chemiluminescent substrates for Factor Xa” (Enzyre B.V., priority 2018, published 2021).

What is called Km is the substrate concentration at which the rate is half of its maximum.

Format in all cases: biochemical
One assay has as its target T1, thrombin (Homo sapiens, UniProt P00734).
T1 construct: FXa acts by cleaving prothrombin, yielding active thrombin
Description: Cross reactivity assay, thrombin. Conditions: 52 nM thrombin. Here is the method: (§1) To determine cross-reactivity an assay was performed using a range of coagulation enzymes at representative concentrations in human plasma. […] For tissue-type plasminogen activator (tPA) this is the conventional concentration for facilitation of fibrinolysis. A concentration of 80 nm FXa yielded a signal of 1.000.000 RLU.

The target of assay [1] is tissue-type plasminogen activator (tPA) (Homo sapiens, UniProt P00750). Nature of the assay: Cross reactivity assay, tPA. Conditions: 193 IU/mL tPA. Here is the method: as §1
Sequence of tissue-type plasminogen activator (tPA) (P00750 36-562): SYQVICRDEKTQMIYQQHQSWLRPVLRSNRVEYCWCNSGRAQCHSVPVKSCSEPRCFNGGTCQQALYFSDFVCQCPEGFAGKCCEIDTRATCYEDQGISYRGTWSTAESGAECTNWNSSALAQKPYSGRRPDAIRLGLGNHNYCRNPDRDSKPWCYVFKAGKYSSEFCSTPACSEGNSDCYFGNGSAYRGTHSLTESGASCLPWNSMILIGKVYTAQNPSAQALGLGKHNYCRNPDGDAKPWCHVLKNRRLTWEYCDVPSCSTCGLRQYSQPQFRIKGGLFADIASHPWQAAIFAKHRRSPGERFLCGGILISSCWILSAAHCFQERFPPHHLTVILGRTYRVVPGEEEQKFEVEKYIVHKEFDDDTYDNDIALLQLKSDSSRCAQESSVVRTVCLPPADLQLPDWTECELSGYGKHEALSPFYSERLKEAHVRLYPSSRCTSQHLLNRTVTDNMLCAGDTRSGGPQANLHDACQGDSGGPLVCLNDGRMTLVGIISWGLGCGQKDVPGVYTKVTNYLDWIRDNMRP
The target of a further assay is plasmin (Homo sapiens, UniProt P00747). Description: Cross reactivity assay, plasmin. Conditions: 8 nM plasmin. Here is the method:
as §1

The next assay concerns the target T2, FXlla (Homo sapiens, UniProt P00748).
T2 construct: initiated by addition of active coagulation factors such as FXlla, FXla, or FIXa
T2 sequence (P00748 373-615 limits assumed): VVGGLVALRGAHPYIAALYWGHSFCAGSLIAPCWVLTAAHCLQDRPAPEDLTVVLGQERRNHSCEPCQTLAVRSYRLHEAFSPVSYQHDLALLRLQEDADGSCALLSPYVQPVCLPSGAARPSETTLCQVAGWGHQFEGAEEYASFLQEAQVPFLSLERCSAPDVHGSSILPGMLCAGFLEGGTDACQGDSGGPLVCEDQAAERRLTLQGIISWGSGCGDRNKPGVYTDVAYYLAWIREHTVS
Nature of the assay: Cross reactivity assay, FXIIa. Conditions: 145 nM FXlla. Here is the method:
as §1

Assay [2] has as its target T3, FXa (Homo sapiens, UniProt P00742).
T3 construct: purchased Coachrom
Nature of the assay: Cross reactivity assay, FXa. Conditions: compared with thrombin, plasmin, tPA, FXlla. Here is the method:
as §1

For assay [3], the target named is T3, FXa. Nature of the assay: Michaelis-Menten kinetics of substrate with FXa (luciferase luminescence). Conditions: FXa concentration 1.6 nM. Here is the method:
Michaelis-Menten kinetics were determined for the enzyme FXa and its substrate MePEG2-IEGR (the TFA salt was used in these examples). The following composition was prepared in a microvial on ice:
160 μL Tris buffered saline (TBS) 50 mM Tris-HCI, 150 mM NaCI (pH 7.4)
4 μL ATP (final concentration 333 μM)
4 μL MgC2 (final concentration 8.3 mM)
12 μL Luciferase (final concentration 0.9 mg/ml)
Substrate compositions 2a-g:
Microvials were prepared with 30 μL substrate concentrations leading to final concentrations of 2000, 1333, 1000, 666, 333, 167 and 66 μM.
FXa (Coachrom, 16 nM) composition was prepared in a microvial on ice
Subsequently, the following compositions were added together in a white 384-well plate:
Subsequently the well plate was placed in a 37 ° C. thermostated Flexstation 3 (Molecular Devices). Luminescence emission wavelength was with an integration time of 1500 ms, measured for 1s every 30 s during 30 min.

Where a SMILES comes first, the peptide text is derived from it. The star is where a group is joined. X1 = O=C(O)[C@H]1CSC(c2nc3ccc(N*)cc3s2)=N1; Decanoyl(3,6,9-trioxa) = COCCOCCOCC(=O)*

T3 sequence (P00742 235-488 limits assumed): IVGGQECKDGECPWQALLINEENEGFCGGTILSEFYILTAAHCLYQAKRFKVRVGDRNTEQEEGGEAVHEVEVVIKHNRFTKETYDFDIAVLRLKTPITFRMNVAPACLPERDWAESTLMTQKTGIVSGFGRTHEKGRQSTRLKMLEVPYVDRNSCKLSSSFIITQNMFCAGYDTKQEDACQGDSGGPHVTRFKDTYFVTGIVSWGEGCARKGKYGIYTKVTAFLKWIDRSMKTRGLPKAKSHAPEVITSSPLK
T3 sequence (P00742 41-179 partner limits assumed): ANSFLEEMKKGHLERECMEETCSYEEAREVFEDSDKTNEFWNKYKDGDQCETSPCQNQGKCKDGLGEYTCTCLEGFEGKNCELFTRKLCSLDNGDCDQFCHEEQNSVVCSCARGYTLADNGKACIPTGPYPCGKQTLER
Sequence of plasmin (P00747 581-810 limits assumed): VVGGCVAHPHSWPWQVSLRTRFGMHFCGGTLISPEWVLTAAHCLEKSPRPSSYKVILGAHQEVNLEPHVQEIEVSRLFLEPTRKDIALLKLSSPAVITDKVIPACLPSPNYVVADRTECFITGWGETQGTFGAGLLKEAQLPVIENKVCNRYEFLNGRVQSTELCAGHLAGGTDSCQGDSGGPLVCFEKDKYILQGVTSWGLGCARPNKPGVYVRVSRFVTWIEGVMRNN
Sequence of plasmin (P00747 97-580 partner limits assumed): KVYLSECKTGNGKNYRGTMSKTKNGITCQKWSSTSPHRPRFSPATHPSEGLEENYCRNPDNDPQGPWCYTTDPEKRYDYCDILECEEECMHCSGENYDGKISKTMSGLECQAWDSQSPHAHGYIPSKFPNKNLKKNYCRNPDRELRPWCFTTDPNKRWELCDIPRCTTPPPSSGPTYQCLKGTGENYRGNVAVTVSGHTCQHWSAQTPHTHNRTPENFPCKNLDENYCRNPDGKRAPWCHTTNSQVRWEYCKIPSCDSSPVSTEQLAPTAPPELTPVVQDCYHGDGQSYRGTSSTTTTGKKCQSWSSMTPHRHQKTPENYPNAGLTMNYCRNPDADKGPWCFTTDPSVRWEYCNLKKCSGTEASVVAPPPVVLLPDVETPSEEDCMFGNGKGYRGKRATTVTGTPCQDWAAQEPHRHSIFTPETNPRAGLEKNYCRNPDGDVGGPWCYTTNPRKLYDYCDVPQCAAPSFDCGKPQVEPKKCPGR

In the case of `CC[C@H](C)[C@H](NC(=O)COCCOCCOC)C(=O)N[C@@H](CCC(=O)O)C(=O)NCC(=O)N[C@@H](CCCNC(=N)N)C(=O)Nc1ccc2nc(C3=N[C@@H](C(=O)O)CS3)sc2c1` [MePEG2-IEGR] ({Decanoyl(3,6,9-trioxa)}-IEGR-X1), the luminescent signal on thrombin is roughly 30.000 RLU; in assay [1], roughly 6.000 RLU; at plasmin it was roughly 8.000 RLU; at FXlla, roughly 500 RLU. Besides, at FXa [2], the “cross-reactivity with serine proteases other than FXa” value is reported as “minimal cross-reactivity”. Besides, the “Kcat=Vmax/[FXa]” value on FXa [3] turned out to be 1.05e+14 s⁻¹. Further, on FXa [3] (37 °C), the Michaelis constant (Km) was 619 µM. The Vmax at FXa [3] (37 °C, luciferase/ATP/Mg readout) is given as 468000 RLU.
